ChEMBL document CHEMBL6096680, “Development of PRC1 Inhibitors Employing Fragment-Based Approach and NMR-Guided Optimization” (J Med Chem, 2025)
Active and inactive are the calls of the source. The rule behind the calls is not given here.

Legend:
[1] = (§1) Inhibition of RING1A (7 to 113 residues)/BMI1 (1 to 104 residues) (unknown origin) extracted from Escherichia coli BL21 (DE3) cells using HeLa nucleosome as substrate assessed as reduction in reduction in H2AK119 ubiquitination preincubated with compound for 1 hrs followed by flag-tagged ubiquitin and substrate addition and measured after 1 hrs by Western blot analysis; set-up: species or system Homo sapiens
[2] = species: Homo sapiens; experiment: Binding affinity to 15N-labeled RING1A (7 to 113 residues)/BMI1 (1 to 104 residues) (unknown origin) extracted from Escherichia coli BL21 (DE3) cells assessed as chemical shift perturbation by 1H-15N HSQC spectra based NMR titration analysis; conditions: dose 30-120 µM
[3] = (§2) Inhibition of 6His-tagged RING1B (10 to 116 residues)/BMI1 (1 to 104 residues) (unknown origin) extracted from Escherichia coli BL21 (DE3) cells preincubated with compound for 1 hrs followed by 3-(1-(4,26-dioxo-30-((3aS,4S,6aR)-2-oxohexahydro-1H-thieno[3,4-d]imidazol-4-yl)-7,10,13,16,19,22-hexaoxa-3,25-diazatriacontyl)-6-methoxy-1H-indol-4-yl)-5-(6-fluoro-1H-indol-4-yl)-4-isopropyl-1H-pyrrole-2-carboxylic acid addition and measured after 1 hrs by Alphascreen competition assay; set-up: species or system Homo sapiens
[4] = Binding affinity to RING1B (10 to 116 residues)/PCGF1 (30 to 138 residues) (unknown origin) assessed as dissociation constant by ITC analysis; set-up: species or system Homo sapiens
[5] = system: TEX; experiment: Inhibition of PRC1 in human TEX cells assessed as decrease in global H2Aub level by measuring fold change at 3.1 uM incubated for 4 days by Western blot analysis (reference value: 1); format: cell-based; conditions: time 4.0 day
[6] = system: TEX; experiment: Inhibition of PRC1 in human TEX cells assessed as decrease in global H2Aub level by measuring fold change at 12.5 uM incubated for 4 days by Western blot analysis (reference value: 1); format: cell-based; conditions: time 4.0 day
[7] = Binding affinity to RING1A (7 to 113 residues)/BMI1 (1 to 104 residues) (unknown origin) extracted from Escherichia coli BL21 (DE3) cells assessed as dissociation constant by ITC analysis; set-up: species or system Homo sapiens
[8] = Inhibition of RING1B (10 to 116 residues)/PCGF1 (30 to 138 residues)(unknown origin) using HeLa nucleosome as substrate assessed as reduction in reduction in H2AK119 ubiquitination preincubated with compound for 1 hrs followed by flag-tagged ubiquitin and substrate addition and measured after 1 hrs by Western blot analysis; set-up: species or system Homo sapiens
[9] = species: Homo sapiens; experiment: Binding affinity to 15N-labeled RING1B (10 to 116 residues)/BMI1 (1 to 104 residues) (unknown origin) extracted from Escherichia coli BL21 (DE3) cells assessed as sum of A79, G83 and T89 chemical shift perturbations at 200 uM by NMR binding analysis
[10] = as §1, with “RING1B (10” for “RING1A (7”, “116 residues)-BMI1” for “113 residues)/BMI1”; set-up: species or system Homo sapiens
[11] = system: TEX; experiment: Upregulation of CEBPalpha gene expression in human TEX cells at 6.2 to 50 uM incubated for 4 days by RT-qPCR analysis; format: functional, cell-based; conditions: dose 6.2-50 µM, time 4.0 day
[12] = species: Homo sapiens; experiment: Binding affinity to 15N-labeled RING1B (10 to 116 residues)/BMI1 (1 to 104 residues) (unknown origin) extracted from Escherichia coli BL21 (DE3) cells assessed as ratio of chemical shift perturbations at 1:2 compound concentration ration by NMR binding analysis
[13] = Binding affinity to RING1B (10 to 116 residues)/BMI1 (1 to 104 residues) (unknown origin) extracted from Escherichia coli BL21 (DE3) cells assessed as dissociation constant by ITC analysis; set-up: species or system Homo sapiens
[14] = species: Homo sapiens; experiment: Binding affinity to 15N-labeled RING1B (10 to 116 residues)/BMI1 (1 to 104 residues) (unknown origin) extracted from Escherichia coli BL21 (DE3) cells assessed as chemical shift perturbation by 1H-15N HSQC spectra based NMR titration analysis; conditions: dose 30-120 µM
[15] = species: Homo sapiens; experiment: Binding affinity to 15N-labeled 6His-tagged RING1B (10 to 116 residues)/PCGF1 (30 to 138 residues) (unknown origin) assessed as chemical shift perturbation by 1H-15N HSQC spectra based NMR titration analysis; conditions: dose 30-120 µM
[16] = system: TEX; experiment: Inhibition of PRC1 in human TEX cells assessed as decrease in global H2Aub level by measuring fold change at 6.2 uM incubated for 4 days by Western blot analysis (reference value: 1); format: cell-based; conditions: time 4.0 day
[17] = as §2, with “RING1A (7” for “RING1B (10”, “113 residues)-BMI1” for “116 residues)/BMI1”; set-up: species or system Homo sapiens
[18] = system: TEX; experiment: Inhibition of PRC1 in human TEX cells assessed as decrease in global H2Aub level by measuring fold change at 25 uM incubated for 4 days by Western blot analysis (reference value: 1); format: cell-based; conditions: time 4.0 day
[19] = system: TEX; experiment: Downregulation of CD34 gene expression in human TEX cells at 6.2 to 50 uM incubated for 4 days by RT-qPCR analysis; format: functional, cell-based; conditions: dose 6.2-50 µM, time 4.0 day
[20] = species: Homo sapiens; experiment: Binding affinity to 15N-labeled RING1B (10 to 116 residues)/BMI1 (1 to 104 residues) (unknown origin) extracted from Escherichia coli BL21 (DE3) cells assessed as sum of A79, G83 and T89 chemical shift perturbations at 100 uM by NMR binding analysis

IC50 [1]: 2600 nM
Activity [2]: Dose-dependent-effect
IC50 [3]: 2300 nM
Kd [4]: 1700 nM
IC50 [8]: 1800 nM
Activity [9]: 299 Hz
IC50 [10]: 2800 nM
Ratio [12]: 0.83
Activity [14]: Dose-dependent-effect
Activity [15]: Dose-dependent-effect
IC50 [17]: 2400 nM
Activity [20]: 248 Hz
Structure (SMILES): CC(C)c1c(-c2cc(F)cc3[nH]ccc23)[nH]c(C(=O)O)c1-c1c(Cl)ccc2[nH]ccc12
fold change (FC) [5]: 1.7
fold change (FC) [6]: 0.88
Kd [7]: 1700 nM
Activity [11]: Active
Kd [13]: 2000 nM
fold change (FC) [16]: 0.9
fold change (FC) [18]: 0.17
Activity [19]: Active
